PMC8348310, “Antioxidants Isolated from Elaeagnus umbellata (Thunb.) Protect against Bacterial Infections and Diabetes in Streptozotocin-Induced Diabetic Rat Model” (Molecules, 2021)

Legend:
[1] = test system: STZ-induced diabetic rats; test: STZ-induced diabetic rat model: serum biochemical parameters (liver, renal, lipid profile, HbA1c); assay type: in vivo, Sprague Dawley adult albino rats
Description: (§1) All the animals were separated into nine groups having eight animals each (Table 1). In the current investigational study STZ-induced diabetic model was used to evaluate the anti-hyperglycemic and anti-hyperlipidemic activity of isolated compound morin in chronic multiple dose experiment. All the animals were treated with their respective treatments for 21 days starting daily at 09:00 am. The fasting blood glucose levels were determined at 0, 4th, 7th, 10th, 15th, and 21st days with glucometer from the tail vein. Changes in the body weight were recorded for untreated control, diabetic, and treated groups in fasting condition from day 1 to day 21 of experimental period and are presented as % increase in body weight.
(§2) According to the reported protocol diabetes was induced into Sprague Dawley adult albino rats by intraperitoneal injection of STZ (50 mg/kg body weight). Blood samples were collected from the tail vein through glucometer strips by means of SD glucometer and the level of blood glucose was measured 72 h after STZ injection. Normal control groups were given normal saline (8 mL/kg, p.o.) as a vehicle, while isolated compound morin to the treatment groups from 3 days after STZ administration for 3 weeks. Animals with blood glucose levels higher than 300 mg/dL were considered diabetic. During the experiment the blood glucose level and body weights were measured.
On 21st day of in vivo antidiabetic activity, all the animals were anesthetized by intraperitoneal (IP) injection of pentobarbital sodium (35 mg/kg body weight) and euthanized by means of cervical decapitation according to the ARRIVE guidelines. Blood samples were collected by cardiac puncture and transferred to EDTA containing tubes. Blood was centrifuged at 3500 rpm for 10 min for the separation of serum. Biochemical parameters like serum alkaline phosphatase (ALP), serum glutamate pyruvate transaminase (SGPT), serum glutamate oxaloacetate transaminase (SGOT) and lipid parameters like total cholesterol (TC), triglycerides (TG), low-density lipoproteins (LDL), high-density lipoprotein (HDL), and serum creatinine in serum were assessed by using Biochemistry analyzer (PS-520; Shenzhen Procan Electronics-China) using diagnostic kits (Reactivos, GPL Barcelona, Spain). According to the reported protocol an enzyme-linked immunosorbent assay (ELISA) kit was used to evaluate the level of glycosylated hemoglobin (HbA1c).

[2] = test system: STZ-induced diabetic rats; test: Pancreas histopathological assessment (H & E); assay type: in vivo, Sprague Dawley adult albino rats; conditions: glibenclamide 5 mg/kg
Description: For histopathological assessment, the pancreas tissues were removed immediately and washed with cold saline solution to remove the blood. Finally, the pancreas portions were fixed in 10% formalin, dehydrated with mixture of ethanol/xylene and then fixed with paraffin. Staining of tissue slides was done with hematoxylin and eosin (H & E) dye through automatic slide stainer (Sakura Tissue-Tek® DRS™ 2000; Tokyo, Japan). According to the reported assay, the stained slides were observed under microscope to see any variation in pancreatic tissue architecture of STZ-induced diabetic group and treated (glibenclamide/morin) groups.

[3] = test system: STZ-induced diabetic rats; test: STZ-induced diabetic rat model: fasting blood glucose and body weight; assay type: in vivo, Sprague Dawley adult albino rats; conditions: vs diabetic control rats
Description: Sprague Dawley adult albino rats (body weight range = 170–200 g) were used in in vivo studies. The animals were purchased from Rifah Institute of Pharmaceutical Sciences Islamabad. The entire animals were given food and fresh water ad libitum. The animals were adjusted at room temperature around 22–25 °C. The animals were housed three rats per cage and maintained with light/dark cycle of about 12 h. All the in vivo procedures were carried out according to the ARRIVE guidelines and approval was taken from the Departmental Animal Ethical Committee (DAEC/2019/1), University of Malakand.
as §1, §2

Salmonella typhi = test: Agar well diffusion, zone of inhibition; assay type: cell-based; conditions: Salmonella enterica, TYPHI, 24 h
Bacillus cereus = test: Agar well diffusion, zone of inhibition; assay type: cell-based; conditions: 37 °C, 24 h
Description: (§3) Antibacterial potential of isolated compound was investigated against both Gram-positive and Gram-negative bacterial strains; Escherichia coli, Bacillus cereus, Salmonella typhi, Klebsiella pneumonia, Pseudomonas aeruginosa and Proteus mirabilis. Bacterial strains were provided by the Department of Pharmacy, University of Malakand, Khyber Pakhtunkhwa, Pakistan, and were kept at 4 °C in agar slants in freeze-dried condition until further use.
(§4) Both Gram-positive and Gram-negative bacterial strains Escherichia coli, Bacillus cereus, Salmonella typhi, Klebsiella pneumonia, Pseudomonas aeruginosa and Proteus mirabilis organism viable count per mL in the stock suspension was determined using surface viable counting technique. About 10^8–10^9 colony-forming units (CFU) per mL were used as inoculum in subsequent experiments. A fresh stock suspension was used each time.
(§5) The antibacterial activity of the isolated compounds (morin, phloroglucinol, and 1-hexyl benzene) was determined using agar well diffusion method. Muller–Hinton agar media was prepared and autoclaved at 15 lbs pressure for 20 min and cooled to 45 °C. The standard bacterial stock suspension 10^8–10^9 CFU/mL were spread on Muller–Hinton agar plates and five wells (3 mm in diameter; four on side and one in center) were punched in plates using a sterile cork borer. The entire wells were filled with 100 µL of the isolated compounds (stock solution: 1 mg/mL) using microtiter-pipette and allowed to diffuse at room temperature for 2 h. The plates were incubated at 37 °C for 24 h. In the center hole, Imipenem was added which served as positive control. Simultaneous, addition of an equal concentration of DMSO solvent instead of isolated compounds was used as blank. After incubation, the zones of inhibition were measured in millimeters (mm) and mean values were calculated. The experiments were performed in triplicates.

Pseudomonas aeruginosa = test: Agar well diffusion, zone of inhibition; assay type: cell-based; conditions: 37 °C, 24 h
Description: as §3, §4, §5

Proteus mirabilis = test: Agar well diffusion, zone of inhibition; assay type: cell-based; conditions: 37 °C, 24 h
Description: as §3, §4, §5

Klebsiella pneumonia = test: Agar well diffusion, zone of inhibition; assay type: cell-based; conditions: Klebsiella pneumoniae, 37 °C, 24 h
Description: as §3, §4, §5

Escherichia coli = test: Agar well diffusion, zone of inhibition; assay type: cell-based; conditions: 37 °C, 24 h
Description: as §3, §4, §5

Staphylococcus aureus = test: Agar well diffusion, zone of inhibition; assay type: cell-based; conditions: 37 °C, 24 h
Description: as §5, with “The standard bacterial stock suspension 10^8–10^9 CFU/mL were spread on Muller–Hinton agar plates and five wells (3 mm in diameter; four on side and one in center) were punched in plates using a sterile cork borer.” left out

[4] = target: Type-I α-glucosidase (Baker Yeast) (Saccharomyces cerevisiae, UniProt P53341); test: In vitro α-glucosidase inhibition assay (PNPG); assay type: biochemical
Description: Chemicals such as Tween-80 (Scharlau-chem., Barcelona, Spain), normal saline solution (Utsoka Pharma, Las Bela Baluchistan, Pakistan), lipid profile tests kits (Human, Hamburg, Germany), renal profile tests kits, and antioxidant enzymes kits (Biomed: Germany; diagnostic) were used in in vivo study. Mueller Hinton (MH) agar and broth (Merck, Modderfontein, South Africa) were used to culture the bacterial strains. Various solvents such as methanol, n-hexane, ethyl acetate, and chloroform (Merck, Darmstadt, Germany) were also used in this study.
The α-glucosidase inhibition potential of morin was determined according to the reported method with minor changes. The reaction mixture was prepared by taking 100 μL α-glucosidase (0.5 unit/mL), 600 μL phosphate buffer (0.1 M; pH 6.9), and 50 μL of isolated compounds (morin, phloroglucinol, and 1-hexyl benzene) with serial dilutions of 31.05, 62.5, 125, 250, 500 and 1000 µg/mL. All the reaction mixtures were incubated at 37 °C for 15 min. The enzymatic reactions were started by adding 100 μL substrate (p-nitro-phenyl-α-D-glucopyranoside) solution (5 mM) formed in phosphate buffer (0.1 M; pH 6.9), finally incubated at 37 °C for 15 min. The reaction was completed by adding sodium carbonate (400 μL; 0.2 M) solution and then at 405 nm absorbance was measured. The blank solution was prepared containing only isolated compounds without α-glucosidase. Percent α-glucosidase inhibition potential was calculated using Equation (3): (3) % α − glucosidase Inhibition =control absorbance−sample absorbance/control absorbance×100
(§6) All the in vitro and in vivo experiments were analyzed in three replicates and determined as mean ± SEM. Student’s t-test and one way ANOVA followed by Dunnett’s post hoc multiple comparison test was used. p ≤ 0.05 were considered as significant. Linear regression analysis was used to calculate the IC50 value for % DPPH, ABTS, α-amylase, and α-glucosidase inhibition against the different concentrations of the test samples by means of Excel program 2007.

[5] = target: T1, Type-VI α-amylase (porcine pancreas) (Sus scrofa, UniProt P00690); test: In vitro α-amylase inhibition assay (DNSA); assay type: biochemical; conditions: read-out: % α-Amylase Inhibition Mean ± SEM
T1 construct: purchased Sigma Aldrich (Darmstadt, Germany); host or cells: porcine pancreas
T1 sequence (P00690 16-511): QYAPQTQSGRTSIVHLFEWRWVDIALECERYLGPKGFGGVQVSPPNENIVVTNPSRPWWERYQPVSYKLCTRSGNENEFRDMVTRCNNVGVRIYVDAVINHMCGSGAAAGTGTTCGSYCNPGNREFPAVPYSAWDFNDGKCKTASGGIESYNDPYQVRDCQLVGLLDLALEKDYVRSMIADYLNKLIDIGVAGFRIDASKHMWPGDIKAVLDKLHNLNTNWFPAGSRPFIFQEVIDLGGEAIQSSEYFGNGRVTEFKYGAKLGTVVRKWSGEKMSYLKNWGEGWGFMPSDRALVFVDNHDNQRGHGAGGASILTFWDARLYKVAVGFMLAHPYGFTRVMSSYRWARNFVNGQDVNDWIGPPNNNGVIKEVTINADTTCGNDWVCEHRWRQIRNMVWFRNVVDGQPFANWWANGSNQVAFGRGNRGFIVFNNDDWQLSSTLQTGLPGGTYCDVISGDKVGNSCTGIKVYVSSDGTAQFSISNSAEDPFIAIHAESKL
Description: The α-amylase inhibition activity of morin was assessed using 3, 5-dinitrosalicylic acid (DNSA) assay. Morin, phloroglucinol, and 1-hexyl benzene were dissolved in mixture of 10% DMSO, 0.02M Na2HPO4/NaH2PO4 buffer, and 0.006M NaCl (pH 6.9) and finally dilutions (31.05, 62.5, 125, 250, 500 and 1000 µg/mL) were prepared. In total, 200 μL α-amylase (2 units/mL) was mixed with 200 μL morin and incubated at 30 °C for 10 min. After that, 200 μL starch (1%) was added to each serial dilution and incubated for 3 min. To stop the reaction 200 μL sodium potassium tartrate tetrahydrate reagent, 2M NaOH, and […] DNSA (96mM) reagent were added to the reaction mixture. The reaction mixtures were boiled for 10 min at 85–90 °C in a water bath. After cooling the mixture was diluted with 5mL distilled water and finally at 540 nm absorbance was recorded. A blank solution was prepared containing only isolated compound morin but no enzyme. […] The α-amylase enzyme inhibitory activity was calculated by the following Equation (2): (2) % α − amylase Inhibition =control absorbance−sample absorbance/control absorbance×100
as §6

[6] = glibenclamide 0.5 mg/kg, morin 15, 30, and 50 mg/kg, vs diabetic control rats
[7] = glibenclamide 5 mg/kg, morin 15, 30, and 50 mg/kg body weight, serum, day 21, vs diabetic control

Sequence of Type-I α-glucosidase (Baker Yeast) (P53341 whole entry): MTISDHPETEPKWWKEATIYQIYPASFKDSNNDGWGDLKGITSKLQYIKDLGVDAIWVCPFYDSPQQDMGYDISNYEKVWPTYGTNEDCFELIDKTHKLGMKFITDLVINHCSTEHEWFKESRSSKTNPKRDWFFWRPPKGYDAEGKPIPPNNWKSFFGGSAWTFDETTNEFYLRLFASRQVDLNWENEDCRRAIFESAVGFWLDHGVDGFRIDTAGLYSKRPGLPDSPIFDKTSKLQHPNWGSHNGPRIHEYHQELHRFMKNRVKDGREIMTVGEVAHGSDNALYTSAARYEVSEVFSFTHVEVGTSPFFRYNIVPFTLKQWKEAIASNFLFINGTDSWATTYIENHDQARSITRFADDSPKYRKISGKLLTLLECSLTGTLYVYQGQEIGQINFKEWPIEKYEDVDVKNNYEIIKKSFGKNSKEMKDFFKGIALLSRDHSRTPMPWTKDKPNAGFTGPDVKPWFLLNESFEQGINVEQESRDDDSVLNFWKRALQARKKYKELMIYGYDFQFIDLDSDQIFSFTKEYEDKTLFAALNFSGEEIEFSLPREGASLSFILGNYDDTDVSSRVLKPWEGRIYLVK

With `COc1ccc(Cl)cc1C(=O)NCCc1ccc(S(=O)(=O)NC(=O)NC2CCCCC2)cc1` [glibenclamide, reference compound] the HDL cholesterol [1, 6] was “significantly increased (p < 0.01)”, the HbA1c level [1, 6] was “significant decrease (p < 0.01; p < 0.001)” and the LDL level [1, 6] was “significant decrease (p < 0.01; p < 0.001)”. The TC level [1, 6] was “significant decrease (p < 0.01; p < 0.001)”, the TG level [1, 6] was “significant decrease (p < 0.01; p < 0.001)” and the serum creatinine level ([1]; glibenclamide 5 mg/kg, morin 15, 30, and 50 mg/kg body weight, day 21, vs diabetic control) was “significantly reduced (p < 0.01; p < 0.001)”. For the same compound, the ALP level [1, 7] was “significantly reduced (p < 0.01; p < 0.001)”, the SGOT level [1, 7] was “significantly reduced (p < 0.01; p < 0.001)” and the SGPT level [1, 7] was “significantly reduced (p < 0.01; p < 0.001)”. For the same compound, the pancreas histopathology [2] was “did not show any violation from the normal histological pattern”, the body weight ([3]; glibenclamide 0.5 mg/kg, p.o.) was “significantly (p < 0.001) reversed the diabetes-induced decrease in body weight” and the fasting glucose level ([3]; glibenclamide 5 mg/kg body weight, day 21) was “significantly (p < 0.001) decreased”.

With `C[C@@H](O)[C@H]1C(=O)N2C(C(=O)O)=C(SCCN=CN)C[C@H]12` [Imipenem, reference compound] the zone of inhibition at 100 µg/mL (Salmonella typhi) was 33 ± 0.1 mm, the zone of inhibition at 100 µg/mL (Bacillus cereus) was 30 ± 0.5 mm and the zone of inhibition at 100 µg/mL (Pseudomonas aeruginosa) was 27 ± 1.1 mm. For the same compound, the zone of inhibition at 100 µg/mL (Proteus mirabilis) was 30 ± 0.5 mm, the zone of inhibition at 100 µg/mL (Klebsiella pneumonia) was 29 ± 0.5 mm and the zone of inhibition at 100 µg/mL (Escherichia coli) was 33 ± 0.2 mm. For the same compound, the zone of inhibition at 100 µg/mL (Staphylococcus aureus) was 25 ± 0.3 mm.

In the case of `C[C@H]1O[C@H](O[C@H]2[C@H](O)[C@@H](O)[C@@H](O[C@H]3[C@H](O)[C@@H](O)C(O)O[C@@H]3CO)O[C@@H]2CO)[C@H](O)[C@@H](O)[C@@H]1N[C@H]1C=C(CO)[C@@H](O)[C@H](O)[C@H]1O` (stereo partly shown) [Standard acarbose, acarbose, reference compound], the “% α-Glucosidase Inhibition Mean ± SEM” value ([4]; 31.05 µg/mL) is reported as 60 ± 0.4%, the “% α-Glucosidase Inhibition Mean ± SEM” value ([4]; 62.5 µg/mL) is reported as 68 ± 0.5% and the “% α-Glucosidase Inhibition Mean ± SEM” value ([4]; 125 µg/mL) is reported as 71 ± 0.5%. The “% α-Glucosidase Inhibition Mean ± SEM” value ([4]; 250 µg/mL) was 77 ± 1.0%, the “% α-Glucosidase Inhibition Mean ± SEM” value ([4]; 500 µg/mL) was 82 ± 0.4% and the “% α-Glucosidase Inhibition Mean ± SEM” value ([4]; 1000 µg/mL) was 89 ± 0.5%. The inhibition at 31.05 µg/mL [5] was 48 ± 0.4%, the inhibition at 62.5 µg/mL [5] was 62 ± 0.5% and the inhibition at 125 µg/mL [5] was 69 ± 0.5%. It also gave an inhibition at 250 µg/mL [5] of 75 ± 1.1%, an inhibition at 500 µg/mL [5] of 83 ± 0.5% and an inhibition at 1000 µg/mL [5] of 90 ± 0.5%.
